# Data: patent US5750531A, “Pyrimidine derivatives and processes for the preparation thereof” (Yuhan Corporation, priority 1994, dated 1998)
# Where a name gives a salt, the structure may show the parent alone.
# Experiments:
# [1] = molecular target: proton pump(H^+ /K^+ ATPase); assay: Inhibition of proton pump(H^+ /K^+ ATPase) activity; type: biochemical; conditions: pH 6.0, 37° C., 30 minutes preincubation and 30 minutes reaction; read-out: IC50 Test compound
# Description: Test 1: Inhibition of proton pump(H^+ /K^+ ATPase) activity
# A proton pump enzyme source was prepared by the same method as in Experiment 1-1 of WO 94/14795. Further, the inhibitory effect of proton pump activity was measured by the same method as in Experiment 1-2 of WO 94/14795.
# Namely, the proton pump activity stimulated by Mg^++ was used as a negative comparative group, and the activity stimulated by Mg^++ and K^+ was used as a positive comparative group. The comparative compound was omeprazole.
# Test tubes were divided into 4 groups: Group 1 as negative comparative group(n=3), Group 2 as positive comparative group(n=3), Group 3(n=5×2) to be administered with the compound of the present invention and Group 4(n=5×2) to be administered with the comparative compound.
# The inhibitory effects of Groups 3 and 4 on proton pump activity were measured by employing the compound prepared in Example and omeperazole, respectively, each of which was dissolved in dimethylsulfoxide at 5 different concentrations.
# To each of Groups 1, 2, 3 and 4 were added 100 μl of magnesium chloride(40 mM) dissolved in 40 mM Tris-HCl buffer(pH 6.0) and 100μ of the enzyme source. Then, 50μ of potassium chloride(50 mM) and 50 μl of ammonium chloride(6 mM) dissolved in 40 mM Tris-HCl buffer(pH 6.0) were added to all groups except for Group 1.
# 10 μl of dimethylsulfoxide was added to each of Groups 1 and 2; and to Group 3 was added 10 μl of the solution in which the compound prepared in Example was dissolved in dimethylsulfoxide at 5 different concentrations(n=5×2). To Group 4, 10 μl of the solution prepared by dissolving omeprazole in dimethylsulfoxide at 5 different concentrations(37.6, 21.4, 12.2, 7.0 and 4.0 μM) was added(n=5×2). 40 mM Tris-HCl buffer(pH=6.0) was added thereto so as to make the total volume 400 μl.
# Thereafter, the test tubes of each Group were placed at 37° C. for 30 minutes for the preincubation. 100 μl of ATP solution (6.6 mM) was added until the reaction volume became 500 μl. After the reaction was carried out at 37° C. for 30 minutes, 25% cold trichloroacetic acid was added to terminate the enzyme reaction. The released inorganic phosphate was measured by an automatic analyzer(Express 550, Corning).
# The difference between Group 1 and Group 2 represents the proton pump activity activated by K^+ only. The inhibition percentages of Groups 3 and 4 were calculated from Litchfield-wilcoxon equation[see, e.g., J. pharmacol. Exp. Ther., 96, 99(1949)]. The concentrations of the test compounds which inhibit 50% of the proton pump activity are represented as IC50 in Table 1.
# gastric secretion = assay: Inhibition of gastric secretion (pylorus ligation, Shay method); type: in vivo, Male Sprague-Dawley rats; conditions: 20 mg/kg intraduodenally, 5 hours; for Rel. Conc.: acid concentration relative to omeprazole; for Relative Acid Output: acid output relative to omeprazole; for Rel. Vol.: gastric juice volume relative to omeprazole
# Description: Inhibition of gastric secretion […] Under ether anesthesia, the abdomen was incised, and the pylorus was ligated. […] After closing the abdominal cavity, the rats were placed for 5 hours and then killed by cervical dislocation. The stomach was extracted to obtain gastric juice. The gastric juice was centrifuged at 1,000 g to remove precipitates. The amount and acidity of the gastric juice were measured. Relative volumes, relative acid concentrations and relative acid outputs of the test compounds were calculated from equations(I), (II) and (III) and the results are shown in Table 2. […] Group 3) (II) […] (III)
Compound,IC50 [1],Rel. Conc. (gastric secretion),Relative Acid Output (gastric secretion),Rel. Vol. (gastric secretion)
"Cc1nc(N(C)c2ccccc2)nc(N2CCc3ccccc3[C@@H]2C)c1C.Cl [Example 20, (S)-5,6-dimethyl-2-(N-methylphenylamino)-4-(1-methyl-1,2,3,4-tetrahydroisoquinolin-2-yl)pyrimidine hydrochloride]",4.4 µM,1.75,1.28,1.66
"Cc1cc(F)ccc1Nc1nc2c(c(N3CCc4ccccc4C3)n1)CCC2 [Example 47, 2-(2-methyl-4-fluorophenylamino)-4-(1,2,3,4-tetrahydroisoquinolin-2-yl)cyclopenta[d]pyrimidine hydrochloride]",~5 µM,0.14,0.38,0.38
"Cl.Fc1ccc(Nc2nc3c(c(N4CCc5ccccc5C4)n2)CCCC3)cc1 [Example 49, 2-(4-fluorophenylamino)-4-(1,2,3,4-tetrahydroisoquinolin-2-yl)-5,6,7,8-tetrahydroquinazoline hydrochloride]",~10.8 µM,0.02,0.16,0.2
"Cc1cc(N2CCc3ccsc3C2C)nc(N(C)c2ccccc2)n1.Cl (centres unmarked) [Example 54, 6-methyl-2-(N-methylphenylamino)-4-(7-methyl-4,5,6,7-tetrahydrothieno[2,3-c]pyridin-6-yl)pyrimidine hydrochloride]",20.6 µM,0.23,0.75,0.86
"CCc1nc(Nc2ccc(F)cc2C)nc(N2CCc3ccccc3C2)c1C.Cl [Example 44, 5-methyl-6-ethyl-2-(2-methyl-4-fluorophenylamino)-4-(1,2,3,4-tetrahydroisoquinolin-2-yl)pyrimidine hydrochloride]",~11.3 µM,0.33,0.41,0.27
"CCc1cc(Nc2ccc(F)cc2)nc(N2CCc3ccccc3C2)n1.Cl [Example 63, 6-ethyl-4-(4-fluorophenylamino)-2-(1,2,3,4-tetrahydroisoquinolin-2-yl)pyrimidine hydrochloride]",~12 µM,0.33,0.72,0.69
"CCCc1cc(N2CCc3ccccc3C2C)nc(Nc2ccc(F)cc2)n1.Cl (centres unmarked) [Example 10, 4-(1-methyl-1,2,3,4-tetrahydroisoquinolin-2-yl)-6-propyl-2-(4-fluorophenylamino)pyrimidine hydrochloride]",10.6 µM,0.47,0.55,0.58
"Cc1cc(F)ccc1Nc1nc2c(c(N3CCc4ccccc4C3)n1)CCCC2.Cl [Example 48, 2-(2-methyl-4-fluorophenylamino)-4-(1,2,3,4-tetrahydroisoquinolin-2-yl)-5,6,7,8-tetrahydroquinazoline hydrochloride]",~5.5 µM,0.04,0.16,0.17
"CCc1cc(Nc2ccc(F)cc2C)nc(N2CCc3ccccc3C2)n1.Cl [Example 62, 6-ethyl-4-(2-methyl-4-fluorophenylamino)-2-(1,2,3,4-tetrahydroisoquinolin-2-yl)pyrimidine hydrochloride]",> 20 µM,0.31,0.67,0.61
"Cc1cc(Nc2ccc(F)cc2C)nc(N2CCc3ccsc3C2C)n1.Cl (centres unmarked) [Example 59, 6-methyl-4-(2-methyl-4-fluorophenylamino)-2-(7-methyl-4,5,6,7-tetrahydrothieno[2,3-c]pyridin-6-yl)pyrimidine hydrochloride]",~12.5 µM,0.25,0.56,0.51
"CCc1cc(N2CCc3ccccc3C2C)nc(Nc2ccccc2C)n1.Cl (centres unmarked) [Example 8, 6-ethyl-2-(2-methylphenylamino)-4-(1-methyl-1,2,3,4-tetrahydroisoquinolin-2-yl)pyrimidine hydrochloride]",~12.5 µM,0.12,0.42,0.43

# Now those with a lower IC50 [1], led by results:
IC50 [1],Compound,Rel. Conc. (gastric secretion),Relative Acid Output (gastric secretion),Rel. Vol. (gastric secretion)
3.5 µM,"Cc1cc(N2CCc3ccccc3C2C)nc(Nc2ccc(F)cc2)n1.Cl (centres unmarked) [Example 3, 6-methyl-4-(1-methyl-1,2,3,4-tetrahydroisoquinolin-2-yl)-2-(4-fluorophenylamino)pyrimidine hydrochloride]",0.81,0.87,0.76
1.5 µM,"Cc1nc(Nc2ccccc2)nc(N2CCc3ccccc3C2C)c1C.Cl (centres unmarked) [Example 21, 5,6-dimethyl-2-(phenylamino)-4-(1-methyl-1,2,3,4-tetrahydroisoquinolin-2-yl)pyrimidine hydrochloride]",0.88,0.97,1.06
1.4 µM,"Cc1nc(Nc2ccccc2)nc(N2CCc3ccccc3[C@H]2C)c1C [Example 22, (R)-5,6-Dimethyl-2-(4-phenylamino)-4-(1-methyl-1,2,3,4-tetrahydroisoquinolin-2-yl)pyrimidine hydrochloride]",0.8,0.90,0.99
1.3 µM,"Cc1cc(F)ccc1Nc1nc(N2CCc3ccccc3[C@@H]2C)nc(C)c1C.Cl [Example 67, (S)-5,6-dimethyl-4-(2-methyl-4-fluorophenylamino)-2-(1-methyl-1,2,3,4-tetrahydroisoquinolin-2-yl)pyrimidine hydrochloride]",0.31,0.62,1.36
1.1 µM,"Cc1ccccc1Nc1nc2c(c(N3CCc4ccccc4C3)n1)CCCC2.Cl [Example 51, 2-(2-methylphenylamino)-4-(1,2,3,4-tetrahydroisoquinolin-2-yl)-5,6,7,8-tetrahydroquinazoline hydrochloride]",0.12,0.59,0.59
1.1 µM,"Cc1cc(F)ccc1Nc1nc(N2CCc3ccccc3C2C)nc2c1CCCC2.Cl (centres unmarked) [Example 82, 4-(2-Methyl-4-fluorophenylamino)-2-(1-methyl-1,2,3,4-tetrahydroisoquinolin-2-yl)-5,6,7,8-tetrahydroquinazoline hydrochloride]",0.59,0.79,0.69
1 µM,"Cc1cc(F)ccc1Nc1nc(N2CCc3ccccc3C2C)nc(C)c1C.Cl (centres unmarked) [Example 65, 5,6-dimethyl-4-(2-methyl-4-fluorophenylamino)-2-(1-methyl-1,2,3,4-tetrahydroisoquinolin-2-yl)pyrimidine hydrochloride]",0.35,0.71,1.43
0.7 µM,"CCc1cc(N2CCc3ccccc3C2)nc(Nc2ccccc2C)n1.Cl [Example 40, 6-ethyl-2-(2-methylphenylamino)-4-(1,2,3,4-tetrahydroisoquinolin-2-yl)pyrimidine hydrochloride]",0.36,0.74,0.71
0.4 µM,"Cc1cc(F)ccc1Nc1nc2c(c(N3CCc4ccccc4C3C)n1)CCC2 (centres unmarked) [Example 29, hydrochloride]",0.31,0.6,0.56
